# Measurements from patent US5972598A, “Methods for preventing multidrug resistance in cancer cells” (priority 1995, dated 1999).
# Read-outs that look alike come from different tables or passages of the source.
# Columns and labels:
# [1] = test system: MDR1; experiment: Inhibition of cytotoxic drug (Ara-C) induced MDR1 expression by protein kinase inhibitors; assay type: cell-based, human
# Procedure: FIG. 5. Effect of protein kinase inhibitors on MDR1 mRNA induction by cytotoxic drugs in H9 cells. […]
# (§1) (Commercially-available kits (for example, from GIBCO/BRL, Gaithersburg, Md.) can be advantageously modified for making cDNA using random hexamers.) PCR is then performed using the following primers: […]
# (where β2 M represents β2 microglobulin). PCR was performed for β2 M experiments under a regime consisting of 1 cycle comprising denaturation at 94° C. for 3 minutes, primer annealing at 60° C. for 30 seconds, and primer extension at 72° C. for 1 minute, followed by 19 cycles comprising denaturation at 94° C. for 30 seconds, primer annealing at 60° C. for 30 seconds, and primer extension at 72° C. for 1 minute, followed by a final cycle comprising denaturation at 94° C. for 30 seconds, primer annealing at 60° C. for 30 seconds, and primer extension at 72° C. for 5 minutes. MDR1 cDNA sequences were amplified using the identical protocol as for β2 M, but extending the amplification from 19 cycles to 25 cycles. In addition, the cDNA-PCR amplification protocol contained the following modifications: (i) Taq DNA polymerase was added to the PCR mixtures after initial heating of the samples to 94° C. (ii) The yield of the β2 -microglobulin-specific band, obtained after 22-28 cycles of PCR, was used as the primary criterion for equalizing the starting amounts of the cDNA templates in different preparations, in order to account for differential RNA degradation in cells subjected to different types of treatment. […] PCR products were detected by autoradiography.
# Cells were plated in 6-well Falcon tissue culture plates at 3,300 cells per well, and incubated in the appropriate concentrations of drugs. Each of the protein kinase inhibitors to be tested were added at their appropriate final concentrations 45 minutes prior to MDR1 induction by the addition of Ara-C or TPA, with the exception of herbimycin A, which was added 12 hours prior to Ara-C or TPA, and tyrphostins A25 and B46, which were each added 16 hours prior to MDR1 induction by the addition of Ara-C or TPA. Cells were incubated overnight (TPA) or for 10 hours (Ara-C) at 37° C. under an atmosphere of 5% CO2 after the addition of the MDR1 inducing agents before harvesting for cDNA-PCR analysis.
# In addition to these conditions, the analysis of certain drugs imposed added requirements. For experiments using calphostin C, cells were incubated under direct white light illumination. For experiments using D,L-threo-sphingosine, the cell culture medium was pre-treated with the appropriate concentration of the drug for one hour at 37° C. with continuous gentle mixing. After this pre-treatment, cells were resuspended in media supplemented with drug and incubated for 45 minutes as described above.
# cDNA-PCR analyses on each culture treated with drugs, or in control cultures incubated in the absence or presence of Ara-C or TPA alone, were performed as described in Section 6.1.3 above.
# To further evaluate the capacity of protein kinase inhibitors to suppress MDR1 induction by cytotoxic drugs and PKC agonists, H-9 human T cell leukemia cells were used in cDNA-PCR assays to examine induced MDR1 mRNA expression levels in the presence of such protein kinase inhibitors.
# [2] = test system: PKC; details: cited from earlier work; for IC50: Hidaka et al., 1984
# [3] = target: protein kinase A; details: Hidaka et al., 1984; cited from earlier work
# [4] = test system: tumor; details: nude mice, i.p. 20 mg/kg; cited from earlier work
# [5] = test system: MDR1; details: cited from earlier work
# [6] = test system: MDR1; assay type: cell-based, human
# Procedure: The times of drug exposure are indicated.
# as §1
# Next, it was tested whether drug-induced MDR1 expression was maintained after the cytotoxic treatment. […] At different time points, MDR1 expression in the surviving cells was analyzed by dye efflux and immunofluorescence labeling with UIC2 (FIG. 3c) or by cDNA-PCR (FIG. 4e).
# [7] = test system: MRP; experiment: Inhibition of MRP expression in H-9 cells; assay type: cell-based, human; details: 25 μM Ara-C, data not shown
# Procedure: PCR was performed using the following primers: […]
# (where β2 M represents β2 microglobulin). PCR was performed for β2 M experiments under a regime consisting of 1 cycle comprising denaturation at 94° C. for 3 minutes, primer annealing at 60° C. for 30 seconds, and primer extension at 72° C. for 1 minute, followed by 19 cycles comprising denaturation at 94° C. for 30 seconds, primer annealing at 60° C. for 30 seconds, and primer extension at 72° C. for 1 minute, followed by a final cycle comprising denaturation at 94° C. for 30 seconds, primer annealing at 60° C. for 30 seconds, and primer extension at 72° C. for 5 minutes.
# [8] = target: T1, P-glycoprotein (Homo sapiens, UniProt P08183); experiment: Dye efflux (Rh123 or DiOC2 (3)) assay of drug-treated K562 cells; details: Ara-C 12-72 hours
# Procedure: (§2) Top panel: Rh123 efflux from untreated cells (-) and from cells treated with 50 μM Ara-C (ARA) for 12 hours or with 10 μAra-C for 2 to 3 days.
# [9] = target: T1, P-glycoprotein
# Procedure: as §2
# [10] = clinical trials; cited from earlier work
# T1 sequence (P08183 whole entry): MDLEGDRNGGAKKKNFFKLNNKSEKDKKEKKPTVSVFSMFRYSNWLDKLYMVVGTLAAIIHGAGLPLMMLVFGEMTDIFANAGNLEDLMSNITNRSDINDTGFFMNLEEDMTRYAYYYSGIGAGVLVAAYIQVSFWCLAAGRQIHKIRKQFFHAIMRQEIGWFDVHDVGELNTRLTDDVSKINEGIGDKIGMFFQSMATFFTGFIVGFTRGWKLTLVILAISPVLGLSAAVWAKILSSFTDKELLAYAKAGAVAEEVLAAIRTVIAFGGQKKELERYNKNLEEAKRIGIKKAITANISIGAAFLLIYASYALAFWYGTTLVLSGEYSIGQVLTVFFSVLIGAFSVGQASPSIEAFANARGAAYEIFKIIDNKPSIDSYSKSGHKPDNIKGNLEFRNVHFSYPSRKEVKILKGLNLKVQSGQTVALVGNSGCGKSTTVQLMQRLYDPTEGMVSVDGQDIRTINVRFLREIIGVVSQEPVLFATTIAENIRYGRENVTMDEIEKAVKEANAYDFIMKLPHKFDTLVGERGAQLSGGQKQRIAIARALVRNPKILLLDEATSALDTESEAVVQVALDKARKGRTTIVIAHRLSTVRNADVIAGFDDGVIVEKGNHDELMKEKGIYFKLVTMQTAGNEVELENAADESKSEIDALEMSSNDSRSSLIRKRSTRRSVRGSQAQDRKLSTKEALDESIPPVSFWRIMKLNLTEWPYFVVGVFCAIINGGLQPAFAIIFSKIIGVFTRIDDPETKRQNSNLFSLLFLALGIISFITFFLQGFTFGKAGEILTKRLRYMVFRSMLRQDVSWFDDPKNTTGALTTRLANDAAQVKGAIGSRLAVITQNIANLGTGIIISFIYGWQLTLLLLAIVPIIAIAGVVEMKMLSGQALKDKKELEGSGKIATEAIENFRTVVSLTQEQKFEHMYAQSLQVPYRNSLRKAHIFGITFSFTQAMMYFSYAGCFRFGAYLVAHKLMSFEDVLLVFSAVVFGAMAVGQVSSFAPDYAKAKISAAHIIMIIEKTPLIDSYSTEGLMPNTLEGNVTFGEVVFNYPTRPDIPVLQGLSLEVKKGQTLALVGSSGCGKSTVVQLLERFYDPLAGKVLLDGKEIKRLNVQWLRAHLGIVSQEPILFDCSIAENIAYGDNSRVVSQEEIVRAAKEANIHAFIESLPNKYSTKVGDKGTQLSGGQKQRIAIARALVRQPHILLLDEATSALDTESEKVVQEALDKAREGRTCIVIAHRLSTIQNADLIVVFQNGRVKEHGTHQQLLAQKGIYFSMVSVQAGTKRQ
smiles,measurement,setting,value
N=C(N)NCCNS(=O)(=O)c1cccc2cnccc12 [HA1004],inhibition of MDR1 induction by Ara-C,"[1]; H9 cells, 60 μM HA1004, 50 μM Ara-C 22 hr",no significant inhibition
same,prevention of MDR1 induction,[1]; protein kinase inhibitor inactive against PKC,totally ineffective in preventing MDR1 induction
same,IC50,[2],40 µM
same,IC50,[3],2.3 µM
O=c1c(O)c(-c2ccc(O)c(O)c2)oc2cc(O)cc(O)c12 [quercetin],inhibition of protein kinase C,[2]; literature,inhibition of PKC activity
same,potentiation of anti-tumor effect of cisplatin,[4],potentiate the anti-tumor effect of cisplatin
same,effect on arsenite-induced increase in MDR1 expression,[5],can prevent an increase in MDR1 expression
O=[As][O-].[Na+] [arsenite],MDR1 expression,[5],increased
CC1CNCCN1S(=O)(=O)c1cccc2cnccc12 (stereo not drawn) [H7],prevention of MDR1 induction by chemotherapeutic drugs,[1]; 50 μM,prevent MDR1 induction
same,IC50,[2],6 µM
same,IC50,[3],3 µM
"Nc1ccn([C@@H]2O[C@H](CO)[C@@H](O)[C@@H]2O)c(=O)n1 [Ara-C, 1-β-D-arabinofuranosylcytosine]",maintenance of MDR1 expression after removal of the drug,[6]; Ara-C treated K562 population,up to 11 weeks
same,MDR1 mRNA expression,"[6]; EJ bladder carcinoma, 10 μM, 4 days",activated MDR1 mRNA expression
same,MDR1 mRNA expression,[6]; H9 T-cell leukemia,activated MDR1 mRNA expression
same,maintenance of MDR1 expression after removal of the drug,"[6]; K562 cells treated 3-5 days, then grown in absence of drug",least several weeks
same,MDR1 mRNA expression relative to β2 -glycoprotein,"[6]; K562 cells, Ara-C",dose-dependent increase in MDR1 mRNA expression
same,MDR1 mRNA expression,"[6]; KB-3-1 epidermoid carcinoma, 2 days",activated MDR1 mRNA expression
same,P-glycoprotein expression (Rh123 accumulation or UIC2 immunoreactivity),"[6]; KG1 leukemia cells, Ara-C (10 μM, 1.5 days)",increased P-glycoprotein expression
same,"MDR1 induction, mRNA and protein levels","[6]; human leukemia and solid-tumor derived cell lines, subpopulation of treated cells","MDR1 induction, both at the mRNA and at the protein levels, was observed"
same,effect on MRP expression,[7],slight decrease in MRP expression
same,subpopulation of live cells showing efflux of Rh123,[8],3-17%
COc1cccc2c1C(=O)c1c(O)c3c(c(O)c1C2=O)C[C@@](O)(C(C)=O)C[C@@H]3O[C@H]1C[C@H](N)[C@H](O)[C@H](C)O1 [daunorubicin],"MDR1 induction, mRNA and protein levels",[6],"MDR1 induction, both at the mRNA and at the protein levels, was observed"
same,MDR1 mRNA induction,[6],induce MDR1 mRNA expression
same,treated cells showing efflux of Rh123 or DiOC2 (3),[9],3-10%
CCCCCCCCCCCCCCCCSCC(COC)COP(=O)([O-])OCC[N+](C)(C)C (stereo not drawn) [ilmofosine],"MTD, oral",[10],200 mg/day
CCCCCCCCCCCCCCCCSCC(COC)COP(=O)([O-])OCC[N+](C)(C)C (stereo not drawn) [BM41440],"MTD, oral",[10],5 mg/kg body weight
CC[C@]1(O)C[C@@H]2CN(CCc3c([nH]c4ccccc34)[C@@](C(=O)OC)(c3cc4c(cc3OC)N(C)[C@H]3[C@@](O)(C(=O)OC)[C@H](OC(C)=O)[C@]5(CC)C=CCN6CC[C@]43[C@@H]65)C2)C1 [vinblastine],"MDR1 induction, mRNA and protein levels",[6],"MDR1 induction, both at the mRNA and at the protein levels, was observed"
same,MDR1 mRNA expression,[6],MDR1 mRNA expression was induced
same,MDR1 mRNA induction,[6],induce MDR1 mRNA expression
same,treated cells showing efflux of Rh123 or DiOC2 (3),[9],3-10%
